One data set relates to blood uric acid. The experiment in a line: Improvement in hyperuricemia: blood uric acid level in patients given troglitazone. The class given is in vivo, human. How it is done:
The level of uric acid in the blood of a patient may be measured in a conventional manner. Specifically, blood is collected before and after the administration, for a predetermined period, of a medicament to a patient suffering from hyperuricemia and then the blood uric acid level is measured, for example, by the uricase catalase method [Kageyama: Clin. Chim. Acta., 31, 421-426 (1971)]. A measuring kit employing the above method is commercially available (“Uricolor 400”, trade name; product of Ono Pharmaceutical Co., Ltd.)
4 adult human patients who had suffered from diabetes and hyperuricemia and whose blood uric acid level was not less than 7.0 mg/dl, were administered orally 200 mg of troglitazone twice a day (in the morning and in the evening). This administration was continued for 4 weeks. Both after and before administration, blood was collected and the blood uric acid level was measured.

The subject of the next data set is ddY mice (male). The class given is in vivo. The note with it: 300 mg/kg orally, three male ddY mice, observed for 5 days. On the procedure:
The acute toxicity of troglitazone was measured in a conventional manner. Specifically, 300 mg/kg of troglitazone was administered orally to three ddY mice (male), which were then observed for 5 days.

The subject of a further data set is uric acid. The note with it: clinical examination values, Rinsho Iyaku 9, Suppl.3, 14 (1993), cited from earlier work.

Values joined by “and” are separate entries in the source; they are usually repeats but may differ in a detail not shown here. Equal entries are not always repeated.

For the compound `Cc1c(C)c2c(c(C)c1O)CCC(C)(COc1ccc(CC3SC(=O)NC3=O)cc1)O2` (stereo not drawn) [troglitazone, 5-[4-(6-hydroxy-2,5,7,8-tetramethylchroman-2-ylmethoxy)benzyl]thiazolidine-2,4-dione], in the data set with blood uric acid (adult human patients with diabetes and hyperuricemia, 200 mg orally twice a day for 4 weeks), the “Blood uric acid level, Week 4” value is 5.2 mg/dL and 5.3 mg/dL and 5.6 mg/dL. For the same compound, in the data set on blood uric acid (adult human patients with diabetes and hyperuricemia, before administration (baseline)), the “Blood uric acid level, Week 0” value is 7.2 mg/dL and 7.6 mg/dL and 7.9 mg/dL. For the same compound, in the data set on blood uric acid (patients with blood uric acid 7.0 mg/dl or greater, 200 mg orally twice a day, 4 weeks, normal range), the “blood uric acid level after administration (summary of the Table)” value is not above 6.0 mg/dL. Also, the “survival (acute toxicity)” value in the data set with ddY mice (male) was “All of them survived”. Moreover, the “uric acid level before administration” value with uric acid (baseline) is recorded as 4.7±1.7. Also, the “uric acid level after administration” value in the data set on uric acid is 4.4±1.4.

Values taken from US6353009B1, “Method for the treatment and prevention of hyperuricemia” (Sankyo Company, Limited, priority 1997, dated 2002).
